Results: patent publication US20020064500A1, “Radiotracers for in vivo study of acetylcholinesterase and alzheimer's disease” (priority 1999, published 2002)

How the values were obtained:
acetylcholinesterase [1] = target: T1, acetylcholinesterase (Mus musculus, UniProt P21836); assay: Kinetic experiment: regional brain biodistribution in mice; format: in vivo, male Charles River mice (CD-1); conditions: for percentage of the administered dose/gram of brain tissue (%ID/g): 5 minutes post i.v. injection, mean of 3
T1 construct: from tissue; host or cells: brain regions of CD-1 mice after intravenous injection
T1 sequence (P21836 32-614): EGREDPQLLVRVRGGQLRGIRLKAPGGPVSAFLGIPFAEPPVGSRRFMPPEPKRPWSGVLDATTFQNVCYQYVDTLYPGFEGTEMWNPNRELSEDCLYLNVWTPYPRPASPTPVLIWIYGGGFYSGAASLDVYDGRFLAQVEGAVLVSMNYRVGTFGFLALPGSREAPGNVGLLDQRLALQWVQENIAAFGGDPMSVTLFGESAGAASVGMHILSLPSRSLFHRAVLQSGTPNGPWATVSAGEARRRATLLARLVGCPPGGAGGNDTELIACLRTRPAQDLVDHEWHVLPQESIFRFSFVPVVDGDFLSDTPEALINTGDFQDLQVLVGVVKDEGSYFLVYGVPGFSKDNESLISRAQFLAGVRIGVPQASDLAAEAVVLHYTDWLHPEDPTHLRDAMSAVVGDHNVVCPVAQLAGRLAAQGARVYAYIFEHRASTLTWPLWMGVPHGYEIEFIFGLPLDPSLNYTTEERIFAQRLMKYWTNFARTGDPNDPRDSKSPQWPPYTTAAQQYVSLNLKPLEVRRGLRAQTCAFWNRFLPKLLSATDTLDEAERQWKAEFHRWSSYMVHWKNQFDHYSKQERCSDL
Experimental: 21 male Charles River mice (CD-1) were divided into 7 groups of 3 mice each. Each mouse was injected via a tail vein with approximately 350 μCi of compound II (10 μg). Each mouse was sacrificed by cervical dislocation at the following times post injection: group 1 at 5 minutes; group 2 at 15 minutes; group 3 at 30 minutes; group 4 at 45 minutes; group 5 at 60; group 6 at 90 minutes; and group 7 at 120 minutes. At the time of sacrifice of a particular group, the brains of each mouse were quickly removed and dissected on ice. The following regions were collected weighed and assayed for radioactivity: cerebellum, hippocampus, striatum, parietal cortex, thalamus. The following values, averaged over each group of three mice, for the percentage of the administered dose of compound II/gram of brain tissue (%ID/g), were found in the following brain regions at five minutes post injection: striatum (6.19% injected dose/gram tissue); thalamus (4.76%); cortex (4.01%); cerebellum (3.76%); and hippocampus (3.41%).

acetylcholinesterase [2] = target: acetylcholinesterase (Homo sapiens, UniProt P22303); assay: PET imaging of acetylcholinesterase in a human brain, with and without ARICEPT; conditions: for Normalized uptake (nCi/ccBRAIN/nCi/ccPLASMA): healthy human subject, i.v., PET, average of scans after 42 minutes; for Normalized uptake post 5 mg ARICEPT (nCi/ccBRAIN/nCi/ccPLASMA): same subject, 3 hours after oral 5 mg ARICEPT tablet
acetylcholinesterase [3] = target: T1, acetylcholinesterase; assay: Dose response experiment: blocking of compound II brain binding by compound III in mice; format: in vivo; conditions: 5 minutes before compound II i.v.
Experimental: Male Charles River mice (CD-1) were divided into 5 groups of 3 mice each. Non-radiolabeled compound III was administered to each mouse in increasing doses as follows: group1, saline controls; group 2, 0.01 mg/kg; group 3, 0.1 mg/kg; group 4, 0.3 mg/kg; and group 5,1 mg/kg. Five minutes after the injection with compound III or the saline control, each mouse was administered compound II (421 μCi, 8 μg) by intravenous injection as above. Each mouse was sacrificed by cervical dislocation and brain tissue dissected and the radioactivity of each brain region assayed as described above. The values, averaged over each group of three mice, for the percentage of the administered dose of compound II/gram of brain tissue at each dosage of compound III for each brain region were calculated (FIG. 4 below).

Chain of acetylcholinesterase (Homo sapiens, UniProt P22303) (P22303 32-614): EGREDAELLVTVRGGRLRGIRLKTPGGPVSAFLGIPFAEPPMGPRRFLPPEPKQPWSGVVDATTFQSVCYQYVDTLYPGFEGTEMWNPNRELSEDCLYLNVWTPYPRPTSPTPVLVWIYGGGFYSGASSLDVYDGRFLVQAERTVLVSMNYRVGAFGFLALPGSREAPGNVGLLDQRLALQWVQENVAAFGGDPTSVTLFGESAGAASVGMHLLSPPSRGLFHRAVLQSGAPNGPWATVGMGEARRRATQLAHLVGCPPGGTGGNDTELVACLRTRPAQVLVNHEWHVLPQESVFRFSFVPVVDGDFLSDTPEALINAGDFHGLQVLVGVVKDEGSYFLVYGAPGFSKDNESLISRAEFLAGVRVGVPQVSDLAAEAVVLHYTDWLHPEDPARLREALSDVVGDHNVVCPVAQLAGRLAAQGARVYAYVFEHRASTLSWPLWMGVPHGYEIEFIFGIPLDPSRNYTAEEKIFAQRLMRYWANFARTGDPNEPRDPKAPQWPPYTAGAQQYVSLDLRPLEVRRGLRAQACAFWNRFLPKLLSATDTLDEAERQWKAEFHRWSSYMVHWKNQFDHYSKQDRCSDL

[11CH3]N1C(=O)Cc2cc3c(CCC4CCN(Cc5ccccc5)CC4)noc3cc21 [compound II, 5,7-dihydro-7-[^11C]-methyl-3-[2-[1-(phenylmethyl)4-piperidinyl]ethyl]-6H-pyrrolo[3,2-f]-1,2-benzisoxazole-6-one]
highest specific binding defined as striatum-cerebellum (acetylcholinesterase [1]; 30 minutes post i.v. injection): 4.33%
percentage of the administered dose/gram of brain tissue (%ID/g) (acetylcholinesterase [1]; cerebellum): 3.76%
percentage of the administered dose/gram of brain tissue (%ID/g) (acetylcholinesterase [1]; cortex): 4.01%
percentage of the administered dose/gram of brain tissue (%ID/g) (acetylcholinesterase [1]; hippocampus): 3.41%
percentage of the administered dose/gram of brain tissue (%ID/g) (acetylcholinesterase [1]; striatum): 6.19 % injected dose/gram tissue
percentage of the administered dose/gram of brain tissue (%ID/g) (acetylcholinesterase [1]; thalamus): 4.76%
Normalized uptake (nCi/ccBRAIN/nCi/ccPLASMA) (acetylcholinesterase [2]; Caudate): 54 nCi/ccBRAIN/nCi/ccPLASMA
Normalized uptake post 5 mg ARICEPT (nCi/ccBRAIN/nCi/ccPLASMA) (acetylcholinesterase [2]; Caudate): 19 nCi/ccBRAIN/nCi/ccPLASMA
Normalized uptake (nCi/ccBRAIN/nCi/ccPLASMA) (acetylcholinesterase [2]; Cerebellum): 47 nCi/ccBRAIN/nCi/ccPLASMA
Normalized uptake post 5 mg ARICEPT (nCi/ccBRAIN/nCi/ccPLASMA) (acetylcholinesterase [2]; Cerebellum): 13 nCi/ccBRAIN/nCi/ccPLASMA
Normalized uptake (nCi/ccBRAIN/nCi/ccPLASMA) (acetylcholinesterase [2]; Frontal cortex): 26 nCi/ccBRAIN/nCi/ccPLASMA
Normalized uptake post 5 mg ARICEPT (nCi/ccBRAIN/nCi/ccPLASMA) (acetylcholinesterase [2]; Frontal cortex): 7 nCi/ccBRAIN/nCi/ccPLASMA
Normalized uptake (nCi/ccBRAIN/nCi/ccPLASMA) (acetylcholinesterase [2]; Hippocampus): 30 nCi/ccBRAIN/nCi/ccPLASMA
Normalized uptake (nCi/ccBRAIN/nCi/ccPLASMA) (acetylcholinesterase [2]; Medulla Oblongata): 40 nCi/ccBRAIN/nCi/ccPLASMA
Normalized uptake (nCi/ccBRAIN/nCi/ccPLASMA) (acetylcholinesterase [2]; Occipital cortex): 23 nCi/ccBRAIN/nCi/ccPLASMA
Normalized uptake (nCi/ccBRAIN/nCi/ccPLASMA) (acetylcholinesterase [2]; Parietal cortex): 27 nCi/ccBRAIN/nCi/ccPLASMA
Normalized uptake post 5 mg ARICEPT (nCi/ccBRAIN/nCi/ccPLASMA) (acetylcholinesterase [2]; Parietal cortex): 7 nCi/ccBRAIN/nCi/ccPLASMA
Normalized uptake (nCi/ccBRAIN/nCi/ccPLASMA) (acetylcholinesterase [2]; Pons): 36 nCi/ccBRAIN/nCi/ccPLASMA
Normalized uptake (nCi/ccBRAIN/nCi/ccPLASMA) (acetylcholinesterase [2]; Putamen): 61 nCi/ccBRAIN/nCi/ccPLASMA
Normalized uptake post 5 mg ARICEPT (nCi/ccBRAIN/nCi/ccPLASMA) (acetylcholinesterase [2]; Putamen): 26 nCi/ccBRAIN/nCi/ccPLASMA
Normalized uptake (nCi/ccBRAIN/nCi/ccPLASMA) (acetylcholinesterase [2]; Temporal cortex): 26 nCi/ccBRAIN/nCi/ccPLASMA
Normalized uptake (nCi/ccBRAIN/nCi/ccPLASMA) (acetylcholinesterase [2]; Thalamus): 33 nCi/ccBRAIN/nCi/ccPLASMA

O=C1Cc2cc3c(CCC4CCN(Cc5ccccc5)CC4)noc3cc2N1 [compound III, 5,7-dihydro-3-[2-[1-(phenylmethyl)-4-piperidinyl]ethyl]-6H-pyrrolo[3,2-f]-1,2-benzisoxazole-6-one]
reduction of compound II binding in striatum relative to the saline control (acetylcholinesterase [3]; compound III 0.1 mg/kg): 6%
reduction of compound II binding in striatum relative to the saline control (acetylcholinesterase [3]; compound III 0.3 mg/kg): 20%
reduction of compound II binding in striatum relative to the saline control (acetylcholinesterase [3]; compound III 1 mg/kg): 52%
